For one test, the system named is Colo320DM. Nature of the test: Colo320DM cell viability. Format: cell-based, human. From the text:
In some embodiments, a polypeptide described herein inhibits binding of BLC9 to β-catenin when assessed in a cell-viability assay. In some embodiments, the cell-viability assay is a CellTiterGlo luminescent assay, wherein the viability of cells is quantitatively measured. Various cell lines, transformed cell lines or primary cells derived from a healthy subject or subject suffering from a disease can be used in this assay.

The test system of the next test is LEF-TCF-bla HCT116 cells. Nature of the test: Wnt reporter assay: Wnt/Beta-Catenin-LEF-TCF-bla HCT116 inhibitor screen, constitutively activated. To be noted: 5 hours incubation with compound. It is filed as cell-based. From the text: In various embodiments, a polypeptide described herein inhibits binding of BCL9 to β-catenin when assessed in a Wnt transcription assay. In some embodiments, the Wnt transcription assay is a cell-based assay. In some embodiments, the cell-based Wnt transcription assay is a GeneBLAzer® beta-lactamase (bla) reporter assay. Various cell lines, transformed cell lines or primary cells derived from a healthy subject or subject suffering from a disease can be used in this assay. A cell line known to be dependent on canonical Wnt/β-catenin signaling for its survival may also be used. In some embodiments, CellSensor™ LEF/TCF-bla HCT-116 cells are used in this reporter assay. These cells contain a beta-lactamase (BLA) reporter gene under the control of a 0-catenin/LEF/TCF response element stably integrated into HCT-116 cells. As the cells constitutively express beta-lactamase, adding a polypeptide that inhibits binding of BCL9 to β-catenin in this assay leads to reduced production of beta-lactamase. The efficiency of the polypeptide in suppressing Wnt transcription can therefore be quantitatively calculated in this assay. In some embodiments, a polypeptide described herein suppresses the Wnt transcription as measured in a GeneBLAzer® beta-lactamase (bla) reporter assay, which is indicative of the ability of the polypeptide to inhibit binding of BCL9 to β-catenin.
Wnt/Beta-Catenin-LEF-TCF-bla HCT116-Inhibitor Screen, Constitutively Activated. LEF-TCF-bla HCT116 cells are thawed and prepared as described above for the Activator Screen. 32 μL of cell suspension is added to each well of a 384-well Poly-D-Lysine assay plate. Cells in Assay Media are incubated for 16-24 hours in the plate at 37° C./5% CO2 in a humidified incubator. 4 μL of a 10× serial dilution of ICG-001 (control inhibitor starting concentration, 25,000 nM) or compounds are added to appropriate wells of the plate. 4 μL of Assay Media is added to all wells to bring the final assay volume to 40 μL. The plate is incubated for 5 hours at 37° C./5% CO2 in a humidified incubator. 8 μL of 1 μM Substrate Loading Solution is added to each well and the plate is incubated for 2 hours at room temperature. The plate is read on a fluorescence plate reader.
On the technique in general: A reporter such as luciferase makes a cellular process visible.

pIC50: −log10 of the molar value. Where a SMILES comes first, the peptide text is derived from it. Bridges are numbered along the chain shown (N, C = ends). [ ]: non-standard residue; d: D form. 2Nal = N[C@@H](Cc1ccc2ccccc2c1)C(=O)O; Ala(cPr) = N[C@@H](CC1CC1)C(=O)O; tBuAla = CC(C)(C)C[C@H](N)C(=O)O; NMeE = CN[C@@H](CCC(=O)O)C(=O)O; NMeQ = CN[C@@H](CCC(N)=O)C(=O)O; Cha = N[C@@H](CC1CCCCC1)C(=O)O; Cba = N[C@@H](CC1CCC1)C(=O)O; S5 = C=CCCC[C@](C)(N)C(=O)O; Ac6c = NC1(C(=O)O)CCCCC1

As a reminder, the pIC50 is the IC50 on a negative log10 scale, so that one unit is a factor of ten. For the molecule `CC[C@H](C)[C@@H]1NC(=O)[C@@](C)(NC(=O)[C@H](CCCNC(=N)N)NC(=O)[C@H](CC(C)C)NC(=O)[C@@H](NC(=O)[C@H](CCC(N)=O)N(C)C(=O)[C@H](CC(C)C)NC(C)=O)[C@@H](C)O)CCCC=CCCC[C@@](C)(C(=O)N[C@@H](CC2CCC2)C(=O)N[C@@H](Cc2ccc3ccccc3c2)C(N)=O)NC(=O)[C@H](CCCNC(=N)N)NC(=O)[C@H](CCC(N)=O)NC1=O` [SEQ ID NO: 108, L(N-methylQ)TLRXIQRX(CBA)(2-Nal)] (Ac-L[NMeQ]TLR[S5]IQR[S5][Cba][2Nal]-NH2; staple 6-10), the pIC50 is 5.51 with Colo320DM and 5.50 with LEF-TCF-bla HCT116 cells. In the same order, the values of `CC[C@H](C)[C@@H]1NC(=O)[C@@](C)(NC(=O)[C@H](CCCNC(=N)N)NC(=O)[C@H](CC2CCCCC2)NC(=O)[C@@H](NC(=O)[C@H](CCC(N)=O)N(C)C(=O)[C@H](CC(C)C)NC(=O)[C@H](CO)NC(=O)[C@H](CCCNC(=N)N)NC(=O)[C@H](CCC(N)=O)N(C)C(=O)[C@H](CCCNC(=N)N)NC(=O)[C@H](Cc2c[nH]cn2)NC(C)=O)[C@@H](C)O)CCCC=CCCC[C@@](C)(C(=O)N[C@@H](CC2CCC2)C(=O)N[C@@H](Cc2ccc3ccccc3c2)C(N)=O)NC(=O)[C@H](CCCNC(=N)N)NC(=O)[C@H](CCC(N)=O)NC1=O` [SEQ ID NO: 163, HR(N-methylQ)RSL(N-methylQ)T(Cha)RXIQRX(CBA)(2-Nal)] (Ac-HR[NMeQ]RSL[NMeQ]T[Cha]R[S5]IQR[S5][Cba][2Nal]-NH2; staple 11-15; N-terminus and C-terminus assumed) are 5.62 and 5.35. In the same order, the values of `CC[C@H](C)[C@@H]1NC(=O)[C@@](C)(NC(=O)[C@H](CCCNC(=N)N)NC(=O)[C@H](CC(C)C)NC(=O)[C@@H](NC(=O)[C@H](CCC(N)=O)N(C)C(=O)[C@H](CC(C)C)NC(=O)[C@H](CO)NC(=O)[C@H](CCCNC(=N)N)NC(=O)[C@H](CCC(=O)O)N(C)C(=O)[C@H](CCCNC(=N)N)NC(=O)[C@H](Cc2c[nH]cn2)NC(C)=O)[C@@H](C)O)CCCC=CCCC[C@@](C)(C(=O)N[C@@H](CC2CCC2)C(=O)N[C@@H](Cc2ccc3ccccc3c2)C(N)=O)NC(=O)[C@H](CCCNC(=N)N)NC(=O)[C@H](CCC(N)=O)NC1=O` [SEQ ID NO: 154, HR(N-methylE)RSL(N-methylQ)TLRXIQRX(CBA)(2-Nal)] (Ac-HR[NMeE]RSL[NMeQ]TLR[S5]IQR[S5][Cba][2Nal]-NH2; staple 11-15) are 5.72 and 5.65. The corresponding values for `CC[C@H](C)[C@@H]1NC(=O)[C@@](C)(NC(=O)[C@H](CCCNC(=N)N)NC(=O)[C@H](CC(C)C)NC(=O)[C@@H](NC(=O)[C@H](CCC(N)=O)NC(=O)[C@H](CC(C)C)NC(=O)[C@H](CO)NC(=O)[C@H](CCCNC(=N)N)NC(=O)[C@H](CCC(N)=O)NC(=O)[C@H](CCCNC(=N)N)NC(=O)[C@H](Cc2c[nH]cn2)NC(C)=O)[C@@H](C)O)CCCC=CCCC[C@@](C)(C(=O)NC2(C(=O)N[C@@H](Cc3ccc4ccccc4c3)C(N)=O)CCCCC2)NC(=O)[C@H](CCCNC(=N)N)NC(=O)[C@H](CCC(N)=O)NC1=O` [SEQ ID NO: 177, HRQRSLQTLRXIQRX(A6C)(2-Nal)] (Ac-HRQRSLQTLR[S5]IQR[S5][Ac6c][2Nal]-NH2; staple 11-15) are 5.57 and 5.35. For the molecule `CC[C@H](C)[C@@H]1NC(=O)[C@@](C)(NC(=O)[C@H](CCCNC(=N)N)NC(=O)[C@H](CC(C)C)NC(=O)[C@@H](NC(=O)[C@H](CCC(N)=O)NC(=O)[C@H](CC(C)C)NC(=O)[C@H](CO)NC(=O)[C@H](CCCNC(=N)N)NC(=O)[C@H](CCC(N)=O)NC(=O)[C@H](CCCNC(=N)N)NC(=O)[C@H](Cc2c[nH]cn2)NC(C)=O)[C@@H](C)O)CCCC=CCCC[C@@](C)(C(=O)N[C@@H](CC2CC2)C(=O)N[C@@H](Cc2ccc3ccccc3c2)C(N)=O)NC(=O)[C@H](CCCNC(=N)N)NC(=O)[C@H](CCC(N)=O)NC1=O` [SEQ ID NO: 162, HRQRSLQTLRXIQRX(Cpa)(2-Nal)] (Ac-HRQRSLQTLR[S5]IQR[S5][Ala(cPr)][2Nal]-NH2; staple 11-15), the pIC50 is 5.38 with Colo320DM and 5.15 in the test with LEF-TCF-bla HCT116 cells.

For `CC[C@H](C)[C@@H]1NC(=O)[C@@](C)(NC(=O)[C@H](CCCNC(=N)N)NC(=O)[C@H](CC(C)C)NC(=O)[C@@H](NC(=O)[C@H](CCC(N)=O)N(C)C(=O)[C@H](CC(C)C)NC(=O)[C@H](CO)NC(=O)[C@H](CCCNC(=N)N)NC(=O)[C@H](CCC(N)=O)N(C)C(=O)[C@H](CCCNC(=N)N)NC(=O)[C@H](Cc2c[nH]cn2)NC(C)=O)[C@@H](C)O)CCCC=CCCC[C@@](C)(C(=O)N[C@@H](CC2CCCCC2)C(=O)N[C@@H](Cc2ccc3ccccc3c2)C(N)=O)NC(=O)[C@H](CCCNC(=N)N)NC(=O)[C@H](CCC(N)=O)NC1=O` [SEQ ID NO: 181, HR(N-methylQ)RSL(N-methylQ)TLRXIQRX(Cha)(2-Nal)] (Ac-HR[NMeQ]RSL[NMeQ]TLR[S5]IQR[S5][Cha][2Nal]-NH2; staple 11-15), the pIC50 is 5.74 in the test with Colo320DM and 5.35 in the test on LEF-TCF-bla HCT116 cells. Molecule `CC[C@H](C)[C@@H]1NC(=O)[C@@](C)(NC(=O)[C@H](CCCNC(=N)N)NC(=O)[C@H](CC(C)C)NC(=O)[C@@H](NC(=O)[C@H](CCC(N)=O)NC(=O)[C@H](CC(C)C)NC(=O)[C@H](CO)NC(=O)[C@H](CCCNC(=N)N)NC(=O)[C@H](CCC(=O)O)NC(=O)[C@H](CCCNC(=N)N)NC(C)=O)[C@@H](C)O)CCCC=CCCC[C@@](C)(C(=O)N[C@@H](CC(C)C)C(=O)N[C@@H](Cc2ccc3ccccc3c2)C(N)=O)NC(=O)[C@H](CCCNC(=N)N)NC(=O)[C@H](CCC(N)=O)NC1=O` [SEQ ID NO: 5, RERSLQTLRXIQRXL(2-Nal)] (Ac-RERSLQTLR[S5]IQR[S5]L[2Nal]-NH2; staple 10-14) showed a pIC50 with Colo320DM of 5.17.

As to `CC[C@H](C)[C@@H]1NC(=O)[C@@](C)(NC(=O)[C@H](CCCNC(=N)N)NC(=O)[C@H](CC(C)C)NC(=O)[C@@H](NC(=O)[C@H](CCC(N)=O)NC(=O)[C@H](CC(C)C)NC(=O)[C@H](CO)NC(=O)[C@H](CCCNC(=N)N)NC(=O)[C@H](CCC(=O)O)N(C)C(=O)[C@H](CCCNC(=N)N)NC(=O)[C@H](Cc2c[nH]cn2)NC(C)=O)[C@@H](C)O)CCCC=CCCC[C@@](C)(C(=O)N[C@@H](CC2CCC2)C(=O)N[C@@H](Cc2ccc3ccccc3c2)C(N)=O)NC(=O)[C@H](CCCNC(=N)N)NC(=O)[C@H](CCC(N)=O)NC1=O` [SEQ ID NO: 151, HR(N-methylE)RSLQTLRXIQRX(CBA)(2-Nal)] (Ac-HR[NMeE]RSLQTLR[S5]IQR[S5][Cba][2Nal]-NH2; staple 11-15), in the test with Colo320DM, the negative-log IC50 (pIC50) was 5.51. The same measure, in the same setting: under `CC[C@H](C)[C@@H]1NC(=O)[C@@](C)(NC(=O)[C@H](CCCNC(=N)N)NC(=O)[C@H](CC(C)C)NC(=O)[C@@H](NC(=O)[C@H](CCC(N)=O)NC(=O)[C@H](CC(C)C)NC(=O)[C@H](CO)NC(=O)[C@H](CCCNC(=N)N)NC(=O)[C@H](CCC(N)=O)N(C)C(=O)[C@H](CCCNC(=N)N)NC(=O)[C@H](Cc2c[nH]cn2)NC(C)=O)[C@@H](C)O)CCCC=CCCC[C@@](C)(C(=O)N[C@@H](CC(C)(C)C)C(=O)N[C@@H](Cc2ccc3ccccc3c2)C(N)=O)NC(=O)[C@H](CCCNC(=N)N)NC(=O)[C@H](CCC(N)=O)NC1=O` [SEQ ID NO: 193, HR(N-MeGln)RSLQTLRXIQRX(β-tBu-Ala)(2-Nal)] (Ac-HR[NMeQ]RSLQTLR[S5]IQR[S5][tBuAla][2Nal]-NH2; staple 11-15) stands 5.57.

(Values after patent publication US11591365B2, “BCL9 peptides and variants thereof” (WntRx Pharmaceuticals Inc., priority 2017, dated 2023).)
